Measured values taken from patent US20120131687A1 (priority 2008, published 2012).

Experiments:
[1] = biological target: T1, cotton aphid seizure D2 (Aphis gossypii, UniProt A0A9P0IRJ5, DEL620-651/K982T, form not given); experiment: Electrophysiological analysis by two-electrode voltage clamp (TEVC) method using Xenopus laevis oocyte; assay type: cell-based; conditions: read-out: IC50 on cotton aphid seizure D2, protocol IV
Source text: Regarding four kinds of cotton aphid seizure splice variants (D1, D2, E1, E2), a gene optimal for producing a gene-recombinant nematode was selected by electrophysiological analysis by the two-electrode voltage clamp method (TEVC method) using an oocyte of Xenopus laevis.
In order to continuously maintain circulation and cleaning of water, female Xenopus laevis was reared in a water bath equipped with an air pump and a filtration device. For Xenopus laevis, a laboratory rearing line was purchased from NASCO (Fort Atkinson, Wis., USA), and adapted to a dry sample, and used in an experiment. Xenopus laevis was reared in tap water retained at a water temperature of 18° C., and a light/dark cycle of each 12 hours was artificially given. Xenopus laevis was anesthetized using a 2 g/l tolycaine aqueous solution, and subsequently cooled with an ice. […]
Using an amplifier TEC-03X manufactured by npi electronics (Tamm, Germany), and software Cellworks, an electrophysiological measurement was performed by the two-electrode voltage clamp method. Experimental data was recorded at room temperature (20 to 25° C.). […]
An activity of a compound was measured using protocol IV by the following procedure. […]
At each test concentration, an amplitude of a current waveform in last three times of continuous pulses was averaged, and a calculated current value was used for calculating an inhibition degree. […]

[2] = biological target: T1, cotton aphid seizure D2; experiment: Electropharyngeogram of recombinant nematode UG2242 expressing cotton aphid seizure D2; assay type: in vivo
Method: By recording a electropharyngeogram using UG2242 which is a transient transformed line, and UG2346 which is a stable transformed line, it was confirmed that the introduced cotton aphid seizure gene was expressed in a functional form.
An imago of a nematode reared at 20° C. was prepared. Using Dent's saline (composition in mM; D-glucose 10 mM, HEPES 10 mM, NaCl 140 mM, KCl 6 mM, CaCl2 3 mM, MgCl2 1 mM, pH 7.4) containing 20 mM serotonin promoting pumping as a chamber internal solution, the nematode was placed into the chamber. Aspiration was performed until the Dent's saline which is a chamber internal solution was contacted with an electrode in a micropipette. After mild aspiration, a head of the nematode was inserted into a tip of a pipette for recording. Data was obtained with an amplifier (Multiclamp 700-A, Axon instruments) and an A/D converter (Digidata 1322A, Axon instruments).

[3] = biological target: nematode functionally expressing cotton aphid seizure (Aphis gossypii, UniProt A0A9P0IRJ5, DEL620-651/K982T, form not given); experiment: Feeding behavior activity (calcein AM intake) of recombinant nematode UG2346 functionally expressing cotton aphid seizure; assay type: in vivo; conditions: read-out: Activity to inhibit feeding behavior of nematode functionally expressing cotton aphid seizure (IC50), 0.03-100 μM
Sequence of nematode functionally expressing cotton aphid seizure (A0A9P0IRJ5 entry or part of it DEL620-651/K982T, form open): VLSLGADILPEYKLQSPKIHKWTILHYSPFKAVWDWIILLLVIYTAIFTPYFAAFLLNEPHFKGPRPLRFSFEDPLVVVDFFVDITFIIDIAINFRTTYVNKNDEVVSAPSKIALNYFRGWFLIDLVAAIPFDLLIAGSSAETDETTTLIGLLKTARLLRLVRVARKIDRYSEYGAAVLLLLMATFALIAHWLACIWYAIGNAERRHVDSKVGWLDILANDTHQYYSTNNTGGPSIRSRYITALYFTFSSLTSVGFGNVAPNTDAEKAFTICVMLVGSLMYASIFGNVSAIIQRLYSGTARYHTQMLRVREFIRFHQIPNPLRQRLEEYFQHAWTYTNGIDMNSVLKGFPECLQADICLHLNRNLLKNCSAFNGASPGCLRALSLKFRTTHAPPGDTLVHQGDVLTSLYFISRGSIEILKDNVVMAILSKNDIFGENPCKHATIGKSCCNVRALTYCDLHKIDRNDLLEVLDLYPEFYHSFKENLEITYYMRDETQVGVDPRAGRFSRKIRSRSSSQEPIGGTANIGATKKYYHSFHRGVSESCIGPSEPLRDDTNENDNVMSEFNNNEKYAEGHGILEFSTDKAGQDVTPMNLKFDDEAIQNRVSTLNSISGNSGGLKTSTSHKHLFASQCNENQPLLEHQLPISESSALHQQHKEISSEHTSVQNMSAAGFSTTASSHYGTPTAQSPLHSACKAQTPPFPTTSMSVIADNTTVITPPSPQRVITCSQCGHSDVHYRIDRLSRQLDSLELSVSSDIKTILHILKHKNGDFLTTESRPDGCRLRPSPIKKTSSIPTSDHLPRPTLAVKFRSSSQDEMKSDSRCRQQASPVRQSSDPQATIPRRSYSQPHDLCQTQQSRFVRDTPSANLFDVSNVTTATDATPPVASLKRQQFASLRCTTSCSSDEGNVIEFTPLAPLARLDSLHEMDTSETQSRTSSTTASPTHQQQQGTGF
Method: In the pharynx of a gene-altered nematode, change in electric activity in cotton aphid seizure influences on an action of the pharynx, that is, intake of food. Therefore, the ability to change an activity of cotton aphid seizure can be measured as the ability to change intake of food, of the gene-recombinant nematode.
Intake of food of the nematode was measured by a method of adding a fluorescent dye precursor to a medium. Specifically, since the fluorescent dye precursor orally taken by the nematode is enzymatically converted into a fluorescent dye in the gut, and a fluorescent signal emitted by the gene-recombinant nematode is increased, intake of food of the nematode can be measured as a fluorescent signal emitted by the nematode.
For measuring the activity to change a feeding behavior activity of a nematode expressing cotton aphid seizure in a functional form, a fluorescent dye precursor was added to a liquid medium containing the nematode expressing cotton aphid seizure in a functional form, and intake of the fluorescent dye precursor orally ingested by the nematode was detected as a fluorescent signal emitted by the nematode. When intake of the fluorescent dye precursor was defined as a feeding behavior activity, an influence of a test substance on a feeding behavior activity was assessed as an influence, on an activity of cotton aphid seizure. […]

[4] = biological target: T1, cotton aphid seizure D2; experiment: Whole cell patch clamp method using CHO cell expressing cotton aphid seizure D2; assay type: cell-based; conditions: 30 μM clofilium
Method: Using a CHO cell expressing cotton aphid seizure D2, an activity of a voltage-gated potassium channel was measured by a whole cell patch clamp method.
According to a general tissue culturing procedure, pGBB036 produced in Example 5 was transiently introduced into the CHO cell. In order to confirm that gene introduction is successful, a GFP gene which is a fluorescent marker was simultaneously introduced into the CHO cell. A ratio of pGBB036 and the marker gene was 10:1. It was possible to simply identify the cell for which gene introduction was successful with an incident-light fluorescence microscope. After cultured for 24 hours, the gene-introduced cell was dispensed, frozen, and immediately cryopreserved at −150° C. On the day before implementation of an electrophysiological experiment, the cryopreserved cell was suspended in a fresh medium again, and the cell was seeded on a cover glass having a diameter of 12 mm which was spread in a petri dish. The petri dish was retained at a temperature of 37° C. under the condition of CO2 at a 5% concentration. […]
Recording by the whole cell patch clamp method was implemented on one CHO cell. […] Recorded signals were all amplified with an amplifier PC-501A manufactured by Warner Instruments (Hamden, Conn., USA) and, thereafter, was digitalized at 10 kHz. […]

[5] = test system: Aphis gossypii; experiment: Pesticidal activity test on artificial feed; assay type: in vivo; conditions: 50 ppm in artificial feed, six days, controlling value of 30% or more = active
Method: Then, according to the same manner as that of the method described in Handbook of Insect Rearing Vol. 1 (Elsevier Science Publishers 1985) pp. 35 to pp. 36 except that a test compound dissolved in DMSO to a final concentration of 50 ppm was added at 0.5% volume of the artificial feed, and components were mixed, Aphis gossypii was reared. […] Controlling value(%)={1−(Cb×Tai)/(Cai×Tb)}×100 Letters in the equation represent the following meanings. Cb: Number of surviving worms before treatment in non-treated section Cai: Number of surviving worms at observation in non-treated section Tb: Number of surviving worms before treatment in treated section Tai: Number of surviving worms at observation in treated section

[6] = test system: nematode; conditions: Drinking Assay, WO 01/88532; cited from earlier work

T1 sequence (A0A9P0IRJ5 entry or part of it DEL620-651/K982T, form open): as above

## CN(CCOc1ccc(NS(C)(=O)=O)cc1)CCc1ccc(NS(C)(=O)=O)cc1 [Dofetilide]
[1]
  IC50: ~23 µM

## CCCCCCC[N+](CC)(CC)CCCCc1ccc(Cl)cc1.Cc1ccc(S(=O)(=O)[O-])cc1 [clofilium]
[2]; 5 μM treatment for 5 minutes
  length of a potential waveform in electropharyngeogram: significantly increased
[2]; 5 μM treatment, after 15 minutes
  potential waveform in electropharyngeogram: the same potential waveform as that of a wild-type
[1]
  IC50: ~1 µM
[3]
  IC50: 4 µM
[4]
  activity of a channel inhibited relative to non-treatment: 86%
[5]
  Result of determination of insecticidal activity: Having insecticidal activity

## CN(C)CCCN1c2ccccc2CCc2ccc(Cl)cc21 [clomipramine]
[6]
  food intake by a nematode: increases food intake

## ivermectin
[6]
  food intake by a nematode: inhibits food intake
